Reference: publication PMC8725005, “The crystal structure of DynF from the dynemicin-biosynthesis pathway of Micromonospora chersina” (Acta Crystallographica. Section F, Structural Biology …, 2022)

Tests used:
DynF = target: T1, DynF (Micromonospora chersina, UniProt B2BM43); test: X-ray crystal structure ([…] Å); GC-MS of acetonitrile extract; assay type: binding; conditions: co-purified from E. coli; bound inside the beta-barrel cavity of each protomer
T1 construct: full-length, N-terminal 6xHis tag cleaved with TEV protease (one extra Ser before Met1); E. coli BL21 (DE3); dimer
T1 sequence (B2BM43 1-210): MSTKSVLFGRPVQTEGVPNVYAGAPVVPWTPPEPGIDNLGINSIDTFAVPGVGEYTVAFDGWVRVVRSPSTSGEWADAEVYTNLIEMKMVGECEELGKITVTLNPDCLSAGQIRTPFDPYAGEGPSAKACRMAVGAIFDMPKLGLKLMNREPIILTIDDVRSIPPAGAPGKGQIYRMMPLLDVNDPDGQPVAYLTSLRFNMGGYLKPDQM

[1] = target: the molecule itself; test: crystal structure; sitting-drop vapor diffusion, 293 K, 25%(w/v) PEG 1500, 0.1 M PCB buffer pH 7.0; space group C222(1); two molecules in the asymmetric unit; palmitic acid bound

## CCCCCCCCCCCCCCCC(=O)O [palmitic acid]
DynF
  X-ray crystal structure (1.50 Å); GC-MS of acetonitrile extract: confirmed by gas chromatography–mass spectrometry (GC-MS) as palmitic acid

B1: DynF from Micromonospora chersina ATCC53710 (natural protein)
chain: MSTKSVLFGRPVQTEGVPNVYAGAPVVPWTPPEPGIDNLGINSIDTFAVPGVGEYTVAFDGWVRVVRSPSTSGEWADAEVYTNLIEMKMVGECEELGKITVTLNPDCLSAGQIRTPFDPYAGEGPSAKACRMAVGAIFDMPKLGLKLMNREPIILTIDDVRSIPPAGAPGKGQIYRMMPLLDVNDPDGQPVAYLTSLRFNMGGYLKPDQM
notes: DynF, Micromonospora chersina ATCC53710, protein of unknown function from the dynemicin biosynthetic gene cluster; GenBank ACB47058.1; the insert primers run from the ATG to the TGA stop codon; The tag mgsshhhhhhenlyfq/s was cut by TEV protease at the slash, so one serine of the tag stays before Met1 (211 residues a chain; 418 of 422 residues built for two chains); Vector pNIC28-Bsa4 (Addgene …)
[1]
  binding result: binds
